# Experimental data as given in patent US20250009942A1, “BIODEGRADABLE PIEZOELECTRIC NANOFIBERS” (University of Connecticut, priority 2022, published 2025).
# Settings: corona discharge, 20 kV
# From the text: Ionized air particles around the needle were accelerated and bombard towards the sample surface, causing electric field across the substrate. […] Later, the samples (n=5 for each group) were positioned on an anti-static mat (Bertech, 1059-2X3BKT) to increase the accuracy of the measurement. The voltmeter was grounded and was held 5 mm from the sample surface.
# The particles 130, 190 were placed on a ground plate and a high voltage (20 kV) was applied between the plate and the top positive nozzle.
smiles,measurement,value
"NCC(=O)O [glycine particles, glycine]",charge accumulation rate and surface charge density after poling,considerably higher than those before poling
